Reference: ChEMBL document CHEMBL5230119, “Development of differentiation modulators and targeted agents for treating neuroblastoma” (Eur J Med Chem, 2020)
pIC50: −log10 of the molar value.

Columns and labels:
[1] = Synergistic antiproliferative activity against MYCN amplified human Neuroblastoma cell in presence of OTX-015; format: functional, cell-based
[2] = Synergistic antiproliferative activity against MYCN amplified human Neuroblastoma cell in presence of JQ1
IMR-32 = experiment: Antiproliferative activity against human IMR-32 cells assessed as cell growth inhibition; format: functional, cell-based

**Q.** With `Cc1sc2c(c1C)C(c1ccc(Cl)cc1)=N[C@@H](CC(=O)NC(C)(C)C)c1nnc(C)n1-2` as the molecule, how does the pIC50 [1] read?
**A.** 5.83

**Q.** With `Cc1sc2c(c1C)C(c1ccc(Cl)cc1)=N[C@@H](CC(=O)Nc1ccc(O)cc1)c1nnc(C)n1-2` [BIRABRESIB] as the molecule, how does the pIC50 [2] read?
**A.** 6.08

**Q.** With `O=C(c1ccc(F)c(F)c1Nc1ccc(I)cc1F)N1CC(O)([C@@H]2CCCCN2)C1` [COBIMETINIB] as the molecule, how does the pIC50 (IMR-32) read?
**A.** 7.15
